Values after ≈ are worked out from the molar mass of the structure shown.
Key:
[1] = parameters: method as in Rodloff et al., 2008; settings: ref Rodloff et al., 2008; cited from earlier work
[2] = test system: P. aeruginosa; assay: Determination of MIC; type: cell-based, Pseudomonas aeruginosa; settings: Pseudomonas aeruginosa
Experimental: (§1) Minimal inhibitory concentrations (MICs) of purified compounds and commercially available standards were assessed against S. aureus, C. albicans, P. aeruginosa, K. pneumoniae, E. coli, ESBL K. pneumoniae, ESBL E. coli and the two MRSA strains (B337919 and B335466). Stock solutions of 5 × 10^6 μg/l of p-hydroxybenzaldehyde, and phenyllactic acid were prepared using water. Stock solutions of 1 × 10^8 μg/l indole-3-carboxylic acid, PAA and indole-3-acetic acid were prepared using methanol and diluted with water (working solution of 5 × 10^6 μg/l). Stocks of 1 × 10^6 μg/l of cFP and cPM were dissolved in water. […] Methanol and water were used as control.

[3] = test system: Caco2 cells; assay: XTT assay, metabolic active cells; type: cell-based, human; settings: for % of metabolic active Caco2 cells: compound 2mg/ml, XTT
Experimental: (§2) In parallel the % of metabolic cells was measured using the XTT [2,3-Bis-(2-methoxy-4-nitro-5-sulfophenyl)-2H-tetra zolium-5-carboxanilide] assay (Thermo Scientific). Briefly, after treatment with the fungal extract or the different compounds cells were incubated with XTT and phenanzine methosulfate (Thermo Scientific) for 2 h. Absorbance was measured at 450 nm and % of metabolic active cells was calculated versus the control sample (media). As controls we incubated the cells without fungal cultures or compound, and with VPA alone.

[4] = test system: HepG2 cells; assay: XTT assay, metabolic active cells; type: cell-based, human; settings: compound 2mg/ml
Experimental: as §2

[5] = test system: S. aureus; assay: Determination of MIC; type: cell-based, Staphylococcus aureus; settings: Staphylococcus aureus; S. aureus; read-out: MIC
Experimental: as §1

[6] = test system: C. albicans; assay: Determination of MIC; type: cell-based, Candida albicans; settings: Candida albicans; C. albicans; read-out: MIC
Experimental: as §1

[7] = test system: MRSA Staphylococcus (S.) aureus B335466; assay: Determination of MIC; type: cell-based; settings: MRSA 335; read-out: MIC
Experimental: as §1

[8] = test system: MRSA Staphylococcus (S.) aureus B337919; assay: Determination of MIC; type: cell-based; settings: MRSA 337; read-out: MIC
Experimental: as §1

[9] = test system: ESBL E. coli; assay: Determination of MIC; type: cell-based, Escherichia coli; settings: Escherichia coli; ESBL E. coli; read-out: MIC
Experimental: as §1

[10] = test system: E. coli; assay: Determination of MIC; type: cell-based, Escherichia coli; settings: Escherichia coli; E. coli; read-out: MIC
Experimental: as §1

[11] = test system: K. pneumoniae; assay: Determination of MIC; type: cell-based, Klebsiella pneumoniae; settings: Klebsiella pneumoniae; K. pneumoniae; read-out: MIC
Experimental: as §1

[12] = test system: ESBL K. pneumoniae; assay: Determination of MIC; type: cell-based, Klebsiella pneumoniae; settings: Klebsiella pneumoniae; ESBL K. pneumoniae; read-out: MIC
Experimental: as §1

[13] = test system: human intestinal epithelial (Caco2) cells; assay: Cytotoxicity assay, lactate dehydrogenase release; type: cell-based; settings: for dead cells: at the determined MIC concentrations, Caco2; for % of living Caco2 cells: compound 2mg/ml, 24 h, LDH
Experimental: (§3) Cytotoxicity of the fungal extract and the identified compounds was determined measuring lactate dehydrogenase release using human intestinal epithelial (Caco2) and human hepatocytic (HepG2) cells. […] Cells were seeded into 96-well plates (5 × 10^4 cells per well) and incubated until a confluent cell layer had developed. After discarding of the media cells were incubated with 50 μl of media and 50 μl of fungal extract or compound (final concentration: PAA 2 × 10^6 μg/l, 4FP 2 × 10^6 μg/l, ICA 2 × 10^6 μg/l, IAA 2 × 10^5 μg/l, PLA 2 × 10^6 μg/l, cPM 2 × 10^6μg/l and cFP 2 × 10^6 μg/l) for 24 h at 37°C. […] LDH release was measured according to the manufacturer’s protocol (Sigma–Aldrich, USA).

[14] = test system: human hepatocytic (HepG2) cells; assay: Cytotoxicity assay, lactate dehydrogenase release; type: cell-based; settings: for % of living HepG2 cells: compound 2mg/ml, 24 h, LDH
Experimental: as §3

[15] = test system: acetylation of histone H3 K9 and K14; assay: Histone posttranslational modifications by Western blot; type: cell-based, Doratomyces microsporus; settings: VPA-treated D. microsporus cultures, 24, 48, 72 h
Experimental: Mycelia from the D. microsporus cultures were harvested after 24, 48, and 72 h by filtration and frozen in liquid nitrogen. Histones were extracted under acidic conditions as described by [Honda and Selker (2008)]. Samples were suspended in Laemmli’s SDS sample buffer and quantified with Pierce BCA Protein Assay (Thermo Scientific). Fifteen microgram of purified histones were separated on 15% SDS-PAGE gel and subsequently transferred to nitrocellulose membrane (GE Healthcare) by electroblotting. Histone H3 acetylation (H3Ac) was detected with primary antibody specific to H3Ac (Millipore, 06-599). As a loading control histone H3 C-terminus was detected with anti H3 C-terminus antibody (Abcam, 1791). The primary antibodies were identified with anti- rabbit (Sigma–Aldrich, A0545) horseradish peroxidase (HRP) conjugated secondary antibody. Chemiluminescence was detected with Clarity^TM ECL Western Substrate and ChemiDoc^TM XRS (Bio- Rad).

[16] = test system: Caco2 and HepG2 cells; type: cell-based; settings: at the determined MIC concentrations; range over compounds and cell lines
Experimental: as §3

Row | Molecule | accepted MIC values for antibiotics in clinical use [1] [µg/mL] | MIC [2] [µg/mL] | % of metabolic active Caco2 cells [3] [%] | metabolic active cells ([3]; human) [%] | % of metabolic active HepG2 cells [4] [%] | MIC [5] [µg/mL] | MIC [6] [µg/mL] | MIC [7] [µg/mL] | MIC [8] [µg/mL] | MIC [9] [µg/mL] | MIC [10] [µg/mL] | MIC [11] [µg/mL] | MIC [12] [µg/mL] | dead cells [13] [%] | % of living Caco2 cells [13] [%] | % of living HepG2 cells [14] [%] | acetylation of the N-terminal lysines of histone 3 compared to the untreated control culture [15] | dead cells ([14]; at the determined MIC concentrations, HepG2) [%] | dead cells [16]
1 | C[C@H]1COc2c(N3CCN(C)CC3)c(F)cc3c(=O)c(C(=O)O)cn1c23 [levofloxacin] | 0.003 |  |  |  |  |  |  |  |  |  |  |  |  |  |  |  |  |  | 
2 | co-trimoxazole | 100 |  |  |  |  |  |  |  |  |  |  |  |  |  |  |  |  |  | 
3 | O=Cc1ccc(O)cc1 [4FP, p-hydroxybenzaldehyde] |  | 2500 (≈ 20.5 mM) | 32.06 | 57.3 | 57.33 | 2000 (≈ 16.4 mM) | 1000 (≈ 8.19 mM) | 2500 (≈ 20.5 mM) | 2500 (≈ 20.5 mM) | 2500 (≈ 20.5 mM) | 2500 (≈ 20.5 mM) | 2500 (≈ 20.5 mM) | 2500 (≈ 20.5 mM) | 25.9 | 25.94 | 7.86 |  |  | 
4 | CCCC(CCC)C(=O)O [VPA, valproic acid] |  |  |  |  |  |  |  |  |  |  |  |  |  |  |  |  | could not detect any significant increase in acetylation |  | 
5 | O=C(O)C(O)Cc1ccccc1 (stereo not drawn) [PLA, phenyllactic acid] |  | 5000 (≈ 30.1 mM) | 41.48 |  | 66.01 | 2000 (≈ 12 mM) |  | 2000 (≈ 12 mM) | 2000 (≈ 12 mM) | 5000 (≈ 30.1 mM) | 2500 (≈ 15 mM) | 2500 (≈ 15 mM) | 5000 (≈ 30.1 mM) | 19.7 | 19.65 | 54.63 |  | 54.63 | 
6 | O=C(O)c1c[nH]c2ccccc12 [ICA, indole-3-carboxylic acid] |  | 2000 (≈ 12.4 mM) | 97.59 |  | 122.3 | 2000 (≈ 12.4 mM) |  | 2000 (≈ 12.4 mM) | 2000 (≈ 12.4 mM) | 1000 (≈ 6.21 mM) | 1000 (≈ 6.21 mM) | 2000 (≈ 12.4 mM) | 2000 (≈ 12.4 mM) |  | 8.36 | 4.86 |  |  | 3.99–8.61%

Reference: publication PMC4829596 (Frontiers in Microbiology, 2016)
